For one assay, the system named is MIA PaCa-2 cells. Put plainly: Scratch wound healing assay. Type of assay: cell-based, human. As to conditions: BAR502 10 µM + LIF 10 ng/mL; 0, 24, 48 h. As to the method: MIA PaCa-2 cells were seeded in DMEM complete medium at […] cells/well into 24-well plate and used at 70-80% confluence rate. The assay was performed as previously described ([20]), particularly on the day 1, the cell monolayers were gently scraped vertically with a new 0.2 mL pipette tip across the centre of the well. After scratching, the well was gently washed twice with PBS (Euroclone, Milan, Italy) to remove the detached cells and cell debris and finally fresh medium containing LIF (10 ng/mL) alone or in combination with BAR502 (10 µM) or EC359 (25 nM) was added into each well. Immediately after scratch creation, the 24-plate was placed under a phase-contrast microscope and the first image of the scratch acquired (T0) with using a OPTIKAM Pro Cool 5 – 4083.CL5 camera. Cells were grown for additional 48 h and images taken at 24h (T1) and 48 h (T2). The gap distance between scarps borders was quantified by assessing that area between the two margins of the scratches. All experiments were performed in triplicate.

The target in another assay is T1, FXR (Homo sapiens, UniProt Q96RI1).
T1 construct: expressed in transfected cells; host or cells: HepG2
T1 sequence (Q96RI1 1-486): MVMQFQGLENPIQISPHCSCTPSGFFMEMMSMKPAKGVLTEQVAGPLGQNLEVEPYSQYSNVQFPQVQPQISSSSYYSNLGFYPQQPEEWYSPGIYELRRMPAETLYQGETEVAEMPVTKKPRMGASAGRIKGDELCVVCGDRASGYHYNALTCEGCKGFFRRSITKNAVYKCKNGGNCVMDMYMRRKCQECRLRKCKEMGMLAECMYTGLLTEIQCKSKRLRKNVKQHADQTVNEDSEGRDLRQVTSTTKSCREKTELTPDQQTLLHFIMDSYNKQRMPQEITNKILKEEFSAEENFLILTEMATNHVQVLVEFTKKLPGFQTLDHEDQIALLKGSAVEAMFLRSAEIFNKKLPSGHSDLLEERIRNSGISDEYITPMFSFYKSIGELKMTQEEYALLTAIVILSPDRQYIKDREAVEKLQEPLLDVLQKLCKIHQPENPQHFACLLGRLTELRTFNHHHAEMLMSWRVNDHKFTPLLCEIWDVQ
T1 sequence (P19793 1-462 partner): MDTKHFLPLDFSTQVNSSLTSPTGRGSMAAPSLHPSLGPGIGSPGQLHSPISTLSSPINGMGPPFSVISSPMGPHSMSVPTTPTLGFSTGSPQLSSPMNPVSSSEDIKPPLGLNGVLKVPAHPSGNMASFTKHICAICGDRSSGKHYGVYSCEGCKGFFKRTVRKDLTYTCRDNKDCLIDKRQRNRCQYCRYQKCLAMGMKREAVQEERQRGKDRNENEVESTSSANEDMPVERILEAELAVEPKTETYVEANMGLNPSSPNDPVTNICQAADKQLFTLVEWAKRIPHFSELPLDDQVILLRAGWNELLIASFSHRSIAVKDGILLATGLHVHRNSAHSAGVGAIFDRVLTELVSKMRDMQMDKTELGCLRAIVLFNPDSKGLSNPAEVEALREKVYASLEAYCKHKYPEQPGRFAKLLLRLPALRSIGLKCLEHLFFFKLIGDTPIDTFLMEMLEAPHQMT
Kind of assay: FXR transactivation (FXR/RXR, hsp27 IR1-luciferase) in HepG2 cells. Type of assay: cell-based. As to the method: On day 0, HepG2 were seeded at 7.5 × 10^4 cells/well in a 24-well plate and maintained at 37°C and 5% CO2 in E-MEM supplemented with 10% FBS, 1% glutamine, and 1% penicillin/streptomycin. On day 1, cells were transiently transfected with the reporter plasmid pGL4.47[luc2P/SIE/Hygro] (200 ng) (CAT#: E4041 Promega, Madison, WI, USA), a vector encoding the hLIFR (CAT# RC226327) (100 ng) and CD130 (IL6ST) (100 ng) (CAT#: RC215123, OriGene Technologies, Inc. Rockville, MD, USA), and finally a vector encoding the human RENILLA luciferase gene (pGL4.70) (100 ng) (Promega, Madison, WI, USA). On day 2, cells were exposed to the cytokine LIF (10 ng/mL) alone or in combination with BAR502 (from 0.1 to 20 μM). […] For FXR mediated transactivation, HepG2 cells were plated at 7.5 × 10^4 cells/well in a 24 well plate. Cells were transfected with 200 ng of the reporter vector p(hsp27)-TK-LUC containing a FXR response element (IR1) cloned from the promoter of heat shock protein 27 (hsp27), 100 ng of pSG5-FXR, 100 ng of pSG5-RXR, and 100 ng of pGL4.70 (Promega), a vector encoding the human Renilla gene. To perform STAT3 transactivation, HepG2 were seeded at 7.5× 10^4 cells/well in a 24-well plate. On the day-1, cells were transiently transfected with 200 ng of the reporter plasmid pGL4.47[luc2P/SIE/Hygro] […] Luminescence was measured using a Glomax 20/20 luminometer (Promega, Madison, WI, USA). […]

Two compounds from publication PMC10043345, “Discovery of BAR502, as potent steroidal antagonist of leukemia inhibitory factor receptor for the treatment of pancreatic adenocarcinoma” (Frontiers in Oncology, 2023) can be followed below.

Consider `CC[C@H]1[C@@H](O)C2C3CC[C@H]([C@H](C)CCO)[C@@]3(C)CCC2[C@@]2(C)CC[C@@H](O)C[C@@H]12` (stereo partly drawn) [BAR502], for which the “reduction of detachment and migration compared to LIF” value with MIA PaCa-2 cells is listed as “≈ 40%”. Further, at FXR (transactivation, agonism, read-out: FXR EC50 Transact), the EC50 – broadly, the concentration that produces a half-maximal response – was determined as 3 ± 1 µM.
Regarding `OCc1ccc(-c2ccc(OCc3cc(-c4c(Cl)cccc4Cl)no3)cc2)cc1` [PDL103, (4’-((3-(2,6-dichlorophenyl)isoxazol-5-yl)methoxy)-[1,1’-biphenyl]-4-yl)methanol], the IC50 on FXR (read-out: HepG2 FXR/RXR Antagonism IC50) stood at 10 µM.
